Reference: ChEMBL document CHEMBL1142056, “Structure-activity relationships of the oxindole growth hormone secretagogues” (Bioorg Med Chem Lett, 2005)

Assays:
[1] = target: Growth hormone secretagogue receptor type 1 (Homo sapiens, UniProt Q92847); assay: Inhibition of [125I]ghrelin binding to human recombinant ghrelin receptor membrane preparation
[2] = Clearance value intravenously administered to rats with 5 mg/kg; assay type: ADME, organism-based; set-up: dose 5 mg/kg, route intravenous; settings: rat, in vivo, iv
[3] = Cmax value in rat after oral dose of 20 mg/k; assay type: ADME, organism-based; set-up: route oral; settings: in vivo, 20 mg/kg
[4] = Volume of distribution value intravenously administered to rats with 5 mg/kg; assay type: ADME, organism-based; set-up: dose 5 mg/kg, route intravenous; settings: rat, in vivo, iv
[5] = Half life value intravenously administered to rats with 5 mg/kg; assay type: ADME, organism-based; set-up: dose 5 mg/kg, route intravenous; settings: rat, in vivo, iv
[6] = Bioavailability value in rat after oral dose of 20 mg/k; assay type: ADME, organism-based; settings: in vivo, 20 mg/kg, read-out: Bioavailabiility

Sequence of Growth hormone secretagogue receptor type 1 (Q92847 whole entry): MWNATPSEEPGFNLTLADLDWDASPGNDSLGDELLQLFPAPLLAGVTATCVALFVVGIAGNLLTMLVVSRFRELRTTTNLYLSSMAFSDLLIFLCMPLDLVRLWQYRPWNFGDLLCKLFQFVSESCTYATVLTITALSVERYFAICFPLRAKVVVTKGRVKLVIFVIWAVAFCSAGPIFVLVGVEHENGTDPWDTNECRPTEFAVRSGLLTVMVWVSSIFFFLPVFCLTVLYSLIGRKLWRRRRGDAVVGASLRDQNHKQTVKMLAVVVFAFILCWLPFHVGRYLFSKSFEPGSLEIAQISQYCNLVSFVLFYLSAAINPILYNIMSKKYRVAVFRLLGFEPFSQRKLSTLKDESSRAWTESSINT

For CCN(CC)CCN1C(=O)C(O)(c2ccccc2Cl)c2c1cc(C(N)=O)cc2C(F)(F)F (configuration not stated), the IC50 [1] was 4 nM.

Compound CCN(CC)CCN1C(=O)C(O)(c2ccccc2)c2c1cc(C(N)=O)cc2C(F)(F)F (configuration not stated) has an IC50 [1] of 116 nM.

CCN(CC)CCN1C(=O)[C@@](O)(c2ccc(Cl)cc2)c2c1cc(C(N)=O)cc2C(F)(F)F showed an IC50 [1] of 83 nM.

With CCN(CC)CCN1C(=O)[C@@](O)(c2cccc(Cl)c2Cl)c2c1cc(C(N)=O)cc2C(F)(F)F the IC50 [1] was 1.6 nM.

Compound CCN(CC)CCN1C(=O)[C@@](O)(c2ccccc2OC)c2c1cc(C(N)=O)cc2C(F)(F)F has an IC50 [1] of 160 nM.

In the case of CCN(CC)CCN1C(=O)[C@@](O)(c2ccc(Cl)cc2Cl)c2c1cc(C(N)=O)cc2C(F)(F)F, the clearance [2] is reported as 51 mL/min/kg, the IC50 [1] is reported as 0.02 nM and the Cmax [3] is reported as 491 ng/mL. For the same compound, the Vd [4] was 5.4 L/kg, the half-life [5] was 1.6 h and the bioavailability [6] was 28%.

CCN(CC)CCN1C(=O)[C@@](O)(c2cccc(OC)c2)c2c1cc(C(N)=O)cc2C(F)(F)F gave an IC50 [1] of 77 nM.

CCN(CC)CCN1C(=O)[C@@](O)(c2c(Cl)cccc2Cl)c2c1cc(C(N)=O)cc2C(F)(F)F gave an IC50 [1] of 4.2 nM.

CCN(CC)CCN1C(=O)[C@@](O)(c2ccccc2Cl)c2c1cc(C(N)=O)cc2C(F)(F)F showed an IC50 [1] of 2.1 nM.

CCN(CC)CCN1C(=O)[C@@](O)(c2cc(Cl)ccc2Cl)c2c1cc(C(N)=O)cc2C(F)(F)F gave an IC50 [1] of 0.24 nM.

With CCN(CC)CCN1C(=O)[C@@](O)(c2cccc(Cl)c2)c2c1cc(C(N)=O)cc2C(F)(F)F the IC50 [1] was 15 nM.

With CCN(CC)CCN1C(=O)[C@@](O)(c2ccc(OC)cc2)c2c1cc(C(N)=O)cc2C(F)(F)F the IC50 [1] was 106 nM.
